We go through 13 molecules from PubChem BioAssay (NCI).

Among the test systems are COLO 205 colon; HT29 colon; OVCAR-5 ovarian; MCF7 breast; CCRF-CEM leukemia; LOX IMVI melanoma; HL-60(TB) leukemia; KM12 colon; SF-268 CNS; PC-3 prostate; MOLT-4 leukemia; ACHN renal; NCI-H226 lung; DU-145 prostate; MDA-MB-435; U251 CNS; CAKI-1 renal; UACC-257 melanoma; EKVX NSCLC.
Holding throughout (test): NCI anticancer screen, dose series, 48 h

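Protocol summary: plate cells (96-well), add compound at 5 concentrations, incubate 48 h, interpolate endpoints linearly. The concentration for full growth arrest is given as TGI.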

As to `COC(NC(=O)Nc1ccc(C)cc1)(C(F)(F)F)C(F)(F)F`, the TGI is 36.8 µM with COLO 205 colon; more than 100 µM with HT29 colon; more than 100 µM with OVCAR-5 ovarian; more than 100 µM in the experiment with MCF7 breast; more than 100 µM in the experiment with CCRF-CEM leukemia; more than 100 µM in the experiment on LOX IMVI melanoma. Moreover, the TGI in the experiment with HL-60(TB) leukemia is more than 100 µM; with KM12 colon, more than 100 µM; with SF-268 CNS it was more than 100 µM; in the experiment with PC-3 prostate, more than 100 µM; in the experiment with MOLT-4 leukemia, 48.6 µM; with ACHN renal, more than 100 µM. Moreover, the TGI in the experiment on NCI-H226 lung is more than 100 µM; in the experiment with DU-145 prostate it was more than 100 µM; with MDA-MB-435, more than 100 µM; in the experiment on U251 CNS, 45 µM.
For `C=CCC1(C(=O)OC)CCC/C(=N\O)C1` (centres undefined), the TGI with CAKI-1 renal, in the experiment with COLO 205 colon, with HT29 colon, in the experiment with UACC-257 melanoma, in the experiment with MCF7 breast and in the experiment with CCRF-CEM leukemia was more than 10 µM each time. Besides, the TGI with LOX IMVI melanoma, with HL-60(TB) leukemia, with KM12 colon, with SF-268 CNS, in the experiment on PC-3 prostate and with MOLT-4 leukemia was more than 10 µM in each case. Also, the TGI in the experiment on ACHN renal, in the experiment with DU-145 prostate, in the experiment on MDA-MB-435 and in the experiment with U251 CNS was more than 10 µM throughout.
Turning to `Cc1cn(C2CC(n3cc(Cn4ccc(=O)[nH]c4=O)nn3)C(CO)O2)c(=O)[nH]c1=O` (centres undefined), the TGI with CAKI-1 renal, in the experiment with COLO 205 colon, in the experiment with OVCAR-5 ovarian, in the experiment on UACC-257 melanoma, with MCF7 breast and in the experiment with CCRF-CEM leukemia was more than 100 µM each time. The TGI in the experiment with HL-60(TB) leukemia, in the experiment with KM12 colon, in the experiment on SF-268 CNS, in the experiment on PC-3 prostate, in the experiment with MOLT-4 leukemia and in the experiment on ACHN renal was more than 100 µM in each case. Besides, the TGI in the experiment on NCI-H226 lung, with DU-145 prostate, in the experiment on MDA-MB-435 and in the experiment on U251 CNS was more than 100 µM each time.
As to `Nn1c(CCCCCCCCc2nnc(-c3c(O)ccc4ccccc34)n2N)nnc1-c1c(O)ccc2ccccc12`, the TGI with CAKI-1 renal, in the experiment on COLO 205 colon, in the experiment on HT29 colon, in the experiment on OVCAR-5 ovarian, with UACC-257 melanoma and with MCF7 breast was more than 100 µM each time. Also, the TGI in the experiment with LOX IMVI melanoma, in the experiment with HL-60(TB) leukemia, in the experiment with KM12 colon, with SF-268 CNS, with PC-3 prostate and with MOLT-4 leukemia was more than 100 µM in each case. Further, the TGI in the experiment on ACHN renal, in the experiment with NCI-H226 lung, with DU-145 prostate, with MDA-MB-435 and in the experiment with U251 CNS was more than 100 µM each time.
For `O=c1onc2n1-c1ccc(Cl)cc1C(=S)N1CSCC21` (centres undefined), the TGI in the experiment with CAKI-1 renal was more than 100 µM; with COLO 205 colon, 35.1 µM; with HT29 colon, 53.1 µM; with OVCAR-5 ovarian it was more than 100 µM; with UACC-257 melanoma, more than 100 µM; with MCF7 breast, 96.9 µM. For the same molecule, the TGI is more than 100 µM in the experiment with CCRF-CEM leukemia; more than 100 µM with LOX IMVI melanoma; 59.6 µM in the experiment with KM12 colon; 69.7 µM with SF-268 CNS; more than 100 µM with EKVX NSCLC; more than 100 µM with PC-3 prostate. Besides, the TGI is more than 100 µM with MOLT-4 leukemia; more than 100 µM in the experiment on ACHN renal; 83.1 µM in the experiment with NCI-H226 lung; more than 100 µM in the experiment with DU-145 prostate; 23.8 µM in the experiment with MDA-MB-435; 35.9 µM with U251 CNS.
In the case of `O=C1C(Cl)=C(Cl)C(=O)C(CCNc2nccs2)=C1Cl`, the TGI is 37.1 µM with CAKI-1 renal; more than 100 µM with COLO 205 colon; more than 100 µM in the experiment on HT29 colon; more than 100 µM in the experiment with OVCAR-5 ovarian; 54.3 µM with UACC-257 melanoma; more than 100 µM with MCF7 breast. Also, the TGI is more than 100 µM with CCRF-CEM leukemia; more than 100 µM in the experiment on HL-60(TB) leukemia; more than 100 µM in the experiment with KM12 colon; more than 100 µM with SF-268 CNS; 60.4 µM in the experiment with EKVX NSCLC; 42.2 µM with PC-3 prostate. Besides, the TGI in the experiment with MOLT-4 leukemia is more than 100 µM; in the experiment on ACHN renal, 63.2 µM; with DU-145 prostate it was more than 100 µM; in the experiment on MDA-MB-435, 42 µM; with U251 CNS, more than 100 µM.
Turning to `COC(=O)CCc1ccc(CCC(=O)OC)cc1`, the TGI in the experiment with CAKI-1 renal, in the experiment on HT29 colon, in the experiment with OVCAR-5 ovarian, in the experiment on UACC-257 melanoma, in the experiment on MCF7 breast and in the experiment with CCRF-CEM leukemia was more than 100 µM throughout. Besides, the TGI in the experiment on LOX IMVI melanoma, in the experiment on HL-60(TB) leukemia, in the experiment with SF-268 CNS, in the experiment on EKVX NSCLC, with PC-3 prostate and in the experiment with MOLT-4 leukemia was more than 100 µM each time. For the same molecule, the TGI with ACHN renal, with DU-145 prostate, with MDA-MB-435 and with U251 CNS was more than 100 µM in each case.
As to `COC(=O)c1cc2c(c(C(=O)OC)c1)CCC2`, the TGI in the experiment with CAKI-1 renal, in the experiment on HT29 colon, in the experiment on OVCAR-5 ovarian, in the experiment with UACC-257 melanoma, with MCF7 breast and in the experiment on CCRF-CEM leukemia was more than 100 µM throughout. Further, the TGI in the experiment on LOX IMVI melanoma, in the experiment with HL-60(TB) leukemia, in the experiment with SF-268 CNS, in the experiment with EKVX NSCLC, in the experiment with PC-3 prostate and with MOLT-4 leukemia was more than 100 µM throughout. Besides, the TGI in the experiment on ACHN renal, in the experiment on DU-145 prostate, in the experiment with MDA-MB-435 and in the experiment on U251 CNS was more than 100 µM in each case.
In the case of `Cc1nc2c(c(N3CCN(C)CC3)n1)Cc1ccccc1-2`, the TGI in the experiment on CAKI-1 renal was 49.4 µM; with COLO 205 colon, more than 100 µM; with HT29 colon, more than 100 µM; with OVCAR-5 ovarian, more than 100 µM; with UACC-257 melanoma it was more than 100 µM; with MCF7 breast it was more than 100 µM. In addition, the TGI in the experiment on CCRF-CEM leukemia, in the experiment on HL-60(TB) leukemia, in the experiment with KM12 colon, in the experiment with SF-268 CNS, with EKVX NSCLC and in the experiment with PC-3 prostate was more than 100 µM in each case. The TGI in the experiment on ACHN renal, in the experiment with NCI-H226 lung, with DU-145 prostate, in the experiment with MDA-MB-435 and in the experiment on U251 CNS was more than 100 µM throughout.
As for `CO/C=C(/C(=O)OC)[C@@H]1C[C@@H]1c1ccc2ccccc2c1`, the TGI in the experiment on CAKI-1 renal was 66 µM; in the experiment on COLO 205 colon, 32.9 µM; with HT29 colon, 48.6 µM; in the experiment on OVCAR-5 ovarian it was more than 100 µM; in the experiment with UACC-257 melanoma, 71.9 µM; with MCF7 breast it was more than 100 µM. In addition, the TGI with CCRF-CEM leukemia is 63.1 µM; with HL-60(TB) leukemia, 49.3 µM; with KM12 colon it was 54.6 µM; in the experiment with SF-268 CNS it was 99.2 µM; in the experiment with EKVX NSCLC it was 60 µM; in the experiment on PC-3 prostate it was more than 100 µM. Besides, the TGI is 65.4 µM with MOLT-4 leukemia; 78.7 µM in the experiment with ACHN renal; more than 100 µM in the experiment on NCI-H226 lung; more than 100 µM in the experiment on DU-145 prostate; 35.1 µM in the experiment on MDA-MB-435; more than 100 µM in the experiment on U251 CNS.
Regarding `O=C(O)/C=C/c1ccc(Oc2ccccc2C(=O)O)o1`, the TGI in the experiment with CAKI-1 renal, in the experiment on COLO 205 colon, in the experiment with HT29 colon, with UACC-257 melanoma, in the experiment with MCF7 breast and in the experiment on CCRF-CEM leukemia was more than 10 µM throughout. Also, the TGI in the experiment on LOX IMVI melanoma, in the experiment on HL-60(TB) leukemia, with KM12 colon, in the experiment with SF-268 CNS, in the experiment with PC-3 prostate and in the experiment with MOLT-4 leukemia was more than 10 µM each time. The TGI with ACHN renal, with DU-145 prostate, in the experiment on MDA-MB-435 and in the experiment with U251 CNS was more than 10 µM throughout.
Turning to `O=c1[nH]c(NCc2cccnc2)nc2nc[nH]c12`, the TGI in the experiment with CAKI-1 renal, in the experiment with COLO 205 colon, in the experiment with HT29 colon, in the experiment with OVCAR-5 ovarian, with UACC-257 melanoma and in the experiment on MCF7 breast was more than 100 µM throughout. Moreover, the TGI in the experiment with CCRF-CEM leukemia, with LOX IMVI melanoma, in the experiment with KM12 colon, with SF-268 CNS, in the experiment with EKVX NSCLC and in the experiment on PC-3 prostate was more than 100 µM in each case. Also, the TGI in the experiment with MOLT-4 leukemia, with ACHN renal, in the experiment on NCI-H226 lung, in the experiment on DU-145 prostate, with MDA-MB-435 and in the experiment on U251 CNS was more than 100 µM throughout.
As to `Cc1nc(OCc2ccccc2)c2ncn(CCO)c2n1`, the TGI in the experiment on CAKI-1 renal, in the experiment with COLO 205 colon, with HT29 colon, in the experiment on OVCAR-5 ovarian, with UACC-257 melanoma and in the experiment with MCF7 breast was more than 100 µM throughout. Besides, the TGI in the experiment on CCRF-CEM leukemia, in the experiment on LOX IMVI melanoma, in the experiment on HL-60(TB) leukemia, with KM12 colon, in the experiment with SF-268 CNS and in the experiment with PC-3 prostate was more than 100 µM throughout. The TGI in the experiment on MOLT-4 leukemia, with ACHN renal, in the experiment with NCI-H226 lung, with DU-145 prostate, in the experiment with MDA-MB-435 and with U251 CNS was more than 100 µM throughout.
